Molecular target: T1, hTAS2R14 (Homo sapiens, UniProt Q9NYV8)
T1 construct: first 45 amino acids of rat somatostatin receptor type 3 (sst3 membrane-targeting tag) (N); expressed in transfected cells; host or cells: HEK293 T-Rex Flp-In cells stably expressing Gα16-gust44; induced with doxycycline
T1 sequence (Q9NYV8 1-317): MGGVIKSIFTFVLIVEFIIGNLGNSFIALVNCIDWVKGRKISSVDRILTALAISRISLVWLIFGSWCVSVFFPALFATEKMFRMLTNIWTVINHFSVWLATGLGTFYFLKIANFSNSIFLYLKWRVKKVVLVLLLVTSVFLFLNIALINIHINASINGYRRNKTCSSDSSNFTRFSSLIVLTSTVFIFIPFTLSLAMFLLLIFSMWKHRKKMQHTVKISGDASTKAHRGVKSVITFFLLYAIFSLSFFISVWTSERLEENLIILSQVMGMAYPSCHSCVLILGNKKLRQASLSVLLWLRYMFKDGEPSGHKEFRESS
Assay: Calcium assay of hTAS2R14 activation/inhibition in HEK293 T-Rex Flp-In cells
Type: cell-based
Details: for IC50, Simultaneous / Threshold, Simultaneous: simultaneous addition, n.b. = no blocking; for IC50 / Threshold, Stepwise: stepwise addition
From the text: For functional expression of the human bitter taste receptor hTAS2R39, HEK293 T-Rex Flp-In cells (Invitrogen, San Diego, CA, USA) were used, stably expressing the chimeric G-protein α-subunit Gα16-gust44 (cloned into pcDNA4 (Invitrogen)) and the human bitter receptor genes for hTAS2R39 (cloned into pcDNA5/FRT (Invitrogen)). The bitter receptor gene contained a DNA sequence encoding the first 45 amino acids of rat somatostatin receptor type 3 at its 5′ end (the receptor expression was achieved according to [18] with exception of the HSV-tag), in order to improve membrane targeting of the receptor protein. The same procedure was applied for stable expression of hTAS2R14. Cells were maintained in Dulbecco's Modified Eagle's Medium (DMEM) and 10% (v/v) tetracycline-free FBS (both Lonza, Verviers, Belgium) supplemented with blasticidin (5 μg/mL), geneticin (400 μg/mL) and hygromycin (100 μg/mL) (all from Invitrogen). Cells were grown and maintained at 37 °C and 5% (v/v) CO2.
Cells were seeded into poly-L-lysine-coated (Sigma-Aldrich) 96-well plates (black wall, clear bottom, Greiner bio-one, Frickenhausen, Germany) at a density of 7*10^3 cells in 100 μL/well and cultured for 24 h. Transcription of the receptors was induced by adding 0.25 μg/mL doxycycline (Sigma-Aldrich). […] One hour after loading, cells were washed with Tyrode's buffer and taken up in Tyrode's buffer. Stock solutions of test compounds were prepared in DMSO and diluted to the appropriate concentration in Tyrode's buffer, not exceeding a DMSO concentration of 1% (v/v).
Two methods of compound administration were applied: simultaneous and stepwise addition of potential antagonist and agonist. The first 17 s before compound addition were used for baseline determination. For the simultaneous method, agonist and potential antagonist were pre-mixed, administered after 17 s, and fluorescence was measured for in total 90 s. For the stepwise method, after 17 s, the potential antagonist was added, fluorescence was measured until 120 s, and after 120 s the agonist was added and measured for another 120 s, in total 240 s. […] Each experiment was performed at least in duplicate in separate experiments (as indicated for each figure).
Data processing was done as reported previously. In brief, SoftMax Pro 5.4 software (Molecular Devices Corporation) was used to plot the fluorescence signals. The fluorescence value (ΔF/F0), representing receptor activity, was calculated by subtracting the baseline fluorescence (F0) prior to loading from the maximum fluorescence (F) after compound addition, divided by the signal of the baseline in order to normalize background fluorescence. Dose-response curves were established as non-linear regression curves using Graph Pad Prism (version 4 for Windows, Graph Pad Software, San Diego, CA, USA). Half-maximal effective concentrations (EC50) and half-maximal inhibitory concentrations (IC50) were calculated. Error bars reflect the standard error of the mean (SEM). Statistical analysis was performed in Graph Pad Prism (one-way ANOVA at 5% risk level, followed by Bonferroni's post hoc test).
Inhibition was indicated when [drawing 1] . In case of indicated inhibition, flavanones were applied at different concentrations, in order to test for dose-dependent inhibition, at the EC80 concentration of the agonist. […] To investigate the specificity of flavanones for inhibition of hTAS2R39 and hTAS2R14, another bitter taste receptor, hTAS2R16 (not known to be activated by flavonoids), was used in inhibition experiments ( File S3 ) towards its agonist salicin.

[1] = inhibition of hTAS2R14 response to 70 μM genistein
[2] = inhibition of hTAS2R14 response to 640 μM ECG

Row | Compound | IC50, Simultaneous [1] | Threshold, Simultaneous [1] | IC50 [1] [µM] | Threshold, Stepwise [1] [µM] | IC50, Simultaneous [2] | Threshold, Simultaneous [2] | IC50 [2] [µM] | Threshold, Stepwise [2] [µM] | blocking of hTAS2R14 (640 μM ECG, simultaneous application) | inhibition of hTAS2R14 (640 μM ECG, stepwise application) | inhibition of hTAS2R14 by probenecid in the buffer (0.5 mM probenecid in Tyrode's buffer, agonist equol)
1 | COc1ccc2c(c1)C(=O)CC(c1ccccc1)O2 (stereo not shown) [Compound 11, 6-Methoxyflavanone] | n.b. | n.b. | 741 ± 143 | 500 | n.b. | n.b. | 447 ± 123 | 250 |  |  | 
2 | COc1ccc2c(c1)C(=O)CC(c1ccc(F)cc1)O2 (stereo not shown) [Compound 6, 4′-Fluoro-6-methoxyflavanone] | n.b. | n.b. | ~500 | 32 | n.b. | n.b. | 79 ± 25 | <8 | no blocking | an inhibitory effect was observed | 
3 | CCCN(CCC)S(=O)(=O)c1ccc(C(=O)O)cc1 [probenecid, p-(dipropylsulfamyl)benzoic acid, reference compound] |  |  |  |  |  |  |  |  |  |  | did not lead to inhibition

— PMC3983201, “6-Methoxyflavanones as Bitter Taste Receptor Blockers for hTAS2R39” (PLoS ONE, 2014)
